The text below walks through data of BindingDB's records for patent US10889592 (VALO EARLY DISCOVERY, INC., 2021).

Test [1] addresses T1, Ubiquitin carboxyl-terminal hydrolase 25 (Homo sapiens, UniProt Q9UHP3).
T1 sequence (Q9UHP3 whole entry): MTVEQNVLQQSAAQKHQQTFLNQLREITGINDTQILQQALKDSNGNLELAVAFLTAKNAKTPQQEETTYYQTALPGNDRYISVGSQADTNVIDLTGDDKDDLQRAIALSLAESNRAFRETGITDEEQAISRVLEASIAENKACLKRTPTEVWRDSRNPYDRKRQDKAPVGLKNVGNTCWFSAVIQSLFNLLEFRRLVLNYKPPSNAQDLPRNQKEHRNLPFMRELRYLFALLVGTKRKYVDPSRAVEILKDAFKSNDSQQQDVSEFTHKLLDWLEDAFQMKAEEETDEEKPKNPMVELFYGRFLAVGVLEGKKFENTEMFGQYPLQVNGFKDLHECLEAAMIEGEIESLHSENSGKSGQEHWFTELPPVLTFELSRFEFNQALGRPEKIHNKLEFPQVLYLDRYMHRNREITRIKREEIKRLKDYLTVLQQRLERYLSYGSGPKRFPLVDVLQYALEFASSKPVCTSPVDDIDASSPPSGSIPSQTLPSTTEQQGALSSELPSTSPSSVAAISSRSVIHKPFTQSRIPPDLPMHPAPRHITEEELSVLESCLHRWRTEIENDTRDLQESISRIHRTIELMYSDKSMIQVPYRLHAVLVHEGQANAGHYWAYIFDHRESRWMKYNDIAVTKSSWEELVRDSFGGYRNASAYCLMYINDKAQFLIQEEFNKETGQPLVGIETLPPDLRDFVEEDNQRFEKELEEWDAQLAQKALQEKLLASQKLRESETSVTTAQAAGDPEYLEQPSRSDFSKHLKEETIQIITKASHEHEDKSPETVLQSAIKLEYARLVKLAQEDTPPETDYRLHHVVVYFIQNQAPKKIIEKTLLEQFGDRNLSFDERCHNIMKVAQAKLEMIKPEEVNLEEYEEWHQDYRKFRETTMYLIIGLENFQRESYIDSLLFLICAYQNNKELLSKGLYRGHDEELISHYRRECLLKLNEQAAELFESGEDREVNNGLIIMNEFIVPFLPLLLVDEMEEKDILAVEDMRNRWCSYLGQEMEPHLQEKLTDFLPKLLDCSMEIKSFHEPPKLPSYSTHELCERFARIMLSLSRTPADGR
In words: Biochemical Assay. The protocol: USP25: The assay was performed in a final volume of 9 μL in assay buffer containing 20 mM Tris-HCl (pH 8.0, (1M Tris-HCl, pH 8.0 solution; Corning 46-031-CM)), 3 mM BME (2-Mercaptoethanol; Sigma 63689-25ML-F), 0.03% BGG (0.22 μM filtered. Sigma, G7516-25G), and 0.01% Triton X-100 (Sigma, T9284-10L). Nanoliter quantities of 10-point, 3-fold serial dilution in DMSO was pre-dispensed into 1536 assay plates (Corning, #3724BC) for a final test concentration of 25 μM to 1.3 nM, top to lowest dose, respectively. Enzyme USP25, construct USP25-His6, (Boston Biochem E-546). Concentration and incubation times were optimized for the maximal signal-to-background while maintaining initial velocity conditions at a fixed substrate concentration. The final concentration of the enzyme in the assay was 75 pM. Final substrate (Ub-Rh110 Ubiquitin-Rhodamine 110, R&D Systems # U-555) concentration was 25 nM with [Ub-Rh110]<<Km. 3 μL of 2× enzyme was added to assay plates (pre-stamped with compound) preincubated with […] for 30 minutes and then 3 μL of 2×Ub-Rh110 was added to assay plates. […] Fluorescence was read on the Envision (Excitation at 485 nm and Emission at 535 nm; Perkin Elmer) or on the PheraSTAR (Excitation at 485 nm and Emission at 535 nm; BMG Labtech).

Test [2] concerns the target T2, Ubiquitin carboxyl-terminal hydrolase 28 (Homo sapiens, UniProt Q96RU2).
T2 sequence (Q96RU2 whole entry): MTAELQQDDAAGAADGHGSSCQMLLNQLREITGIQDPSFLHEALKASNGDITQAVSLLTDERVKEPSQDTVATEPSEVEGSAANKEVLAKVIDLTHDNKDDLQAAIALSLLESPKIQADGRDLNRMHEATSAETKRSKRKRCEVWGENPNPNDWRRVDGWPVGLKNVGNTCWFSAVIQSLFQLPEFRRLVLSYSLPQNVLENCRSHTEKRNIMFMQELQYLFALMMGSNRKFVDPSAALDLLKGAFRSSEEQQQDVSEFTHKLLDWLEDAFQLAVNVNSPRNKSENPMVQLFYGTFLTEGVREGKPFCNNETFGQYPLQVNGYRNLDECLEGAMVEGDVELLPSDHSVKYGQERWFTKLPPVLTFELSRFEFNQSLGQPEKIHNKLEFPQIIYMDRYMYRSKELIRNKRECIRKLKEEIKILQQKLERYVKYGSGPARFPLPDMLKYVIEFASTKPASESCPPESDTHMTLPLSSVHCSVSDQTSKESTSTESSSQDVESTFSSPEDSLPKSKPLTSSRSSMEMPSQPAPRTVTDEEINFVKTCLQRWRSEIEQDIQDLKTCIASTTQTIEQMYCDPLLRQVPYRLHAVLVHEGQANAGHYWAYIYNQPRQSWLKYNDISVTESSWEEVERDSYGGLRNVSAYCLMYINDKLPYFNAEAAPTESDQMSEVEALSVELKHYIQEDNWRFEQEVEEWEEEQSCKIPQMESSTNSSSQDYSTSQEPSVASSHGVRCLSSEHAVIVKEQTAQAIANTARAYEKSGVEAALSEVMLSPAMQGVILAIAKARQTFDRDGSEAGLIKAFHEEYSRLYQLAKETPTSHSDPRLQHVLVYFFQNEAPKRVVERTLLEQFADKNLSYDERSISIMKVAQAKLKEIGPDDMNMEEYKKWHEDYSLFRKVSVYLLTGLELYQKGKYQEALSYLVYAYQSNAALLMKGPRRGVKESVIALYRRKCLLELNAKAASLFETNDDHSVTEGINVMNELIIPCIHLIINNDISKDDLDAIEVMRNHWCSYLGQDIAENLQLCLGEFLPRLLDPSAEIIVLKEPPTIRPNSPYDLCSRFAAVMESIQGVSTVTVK
As to the kind of experiment: Biochemical Assay. Here is the method:
USP28: Each assay was performed in a final volume of 20 μL in assay buffer containing 20 mM Tris-HCl (pH 8.0, (1M Tris-HCl, pH 8.0 solution; Corning 46-031-CM)), 2 mM CaCl2) (1M Calcium Chloride solution; Sigma #21114) 2 mM BME (2-Mercaptoethanol; Sigma 63689-25ML-F), 0.01% Prionex (0.22 μM filtered, Sigma # G-0411), and 0.01% Triton X-100. Stock compound solutions were stored at −20° C. as 10 mM in DMSO. Up to 1 month prior to the assay, 2 mM test compounds were pre-dispensed into assay plates (Black, low volume; Corning #3820) and frozen at −20° C. Prestamped assay plates were allowed to come to room temperature on the day of the assay. For the screen, 100 nL of 2 mM was pre-dispensed for a final screening concentration of 10 μM (DMSO(fc)=0.5%). […] Plates were incubated stacked for 90 minutes at room temperature before fluorescence was read on the Envision (Excitation at 485 nm and Emission at 535 nm; Perkin Elmer) or on the PheraSTAR (Excitation at 485 nm and Emission at 535 nm; BMG Labtech).

The structures appear in SMILES notation.

One may read the IC50 as the concentration that gives 50% inhibition. A higher IC50 goes with weaker potency. Consider `Cc1cnc2c(N)c(C(=O)NCCc3ccc(N4C5CCC4CNC5)cc3F)sc2n1` [US10889592, Compound I-10], for which the results for the IC50 entry in test [1] and in test [2] were “in the range around 1100 nM” and < 200 nM, respectively.
The like results for `Cc1cnc2c(N)c(C(=O)NCCc3c(F)cc(N4C5CCC4CNC5)cc3F)sc2n1` [US10889592, Compound I-11] were, in that order, “in the range around 1100 nM” and “in the range around 1100 nM”.
